Experimental data from paper PMC10825133, “Repurposing proteasome inhibitors for improved treatment of triple-negative breast cancer” (Cell Death Discovery, 2024).
Where two headings read alike, the source gives them in different places. Residues, ends and D or L forms follow the SMILES beside them. *: point of attachment. Cbz = O=C(OCc1ccccc1)*

Columns and labels:
Assay in all cases: Resazurin-based cell viability assay, monotherapy drug screen
Set-up in all cases: species or system human; AUC: scale not given here
HCC1806 cells = details: for AUC: area under the dose response curve, 24 h; for GRmax: drug efficacy at highest tested dose (<0 cytotoxic, 0 cytostatic, >0 partial growth inhibition); for IC50: Homo sapiens
Description: (§1) Eighteen pharmaceutical compounds were purchased from Selleckchem. […] The stock solutions were stored at -80°C. […] New drug plates were prepared for each drug screen.
(§2) To determine the optimal seeding density and ensure that the cells were in the exponential phase during the duration of the experiment (approx. 52h), each cell line (BT-549, CAL-148, HCC1806, HCC38, HCC70, MCF-10A, MCF-7, MDA-MB-436, MDA-MB-453, and MDA-MB-468) was seeded at different concentrations (1000 to 16000 cells) per 96-well, as previously described. Cell viability was measured daily (day 0 [plating day] to day 4) using 0.2 mg/ml resazurin solution prepared from resazurin sodium salt (Fisher Scientific) dissolved in sterile 1xPBS (ThermoFisher Scientific). Before use, the resazurin solution was brought to RT before 10 µl (10% of cell medium volume) was added to each 96-well and incubated for 4h at 37°C. The absorbance was measured with a 560 nm excitation filter and a 615 nm emission filter in a Wallac 1420 VICTOR2™ microplate reader (Perkin Elmer). The slope of the curve was used to determine the optimal seeding density, i.e., the highest seeding density with linear growth between days 1 and 3.

MDA-MB-453 cells = details: for AUC: area under the dose response curve, 24 h; for IC50: Homo sapiens
Description: as §1, §2

MCF-7 cells = details: for IC50: Homo sapiens; for AUC: area under the dose response curve, 24 h; for GRmax: drug efficacy at highest tested dose (<0 cytotoxic, 0 cytostatic, >0 partial growth inhibition)
Description: as §1, §2

BT-549 cells = details: for AUC: area under the dose response curve, 24 h; for GRmax: drug efficacy at highest tested dose (<0 cytotoxic, 0 cytostatic, >0 partial growth inhibition); for IC50: Homo sapiens
Description: as §1, §2

MCF-10A cells = details: for IC50: Homo sapiens; for AUC: area under the dose response curve
Description: as §1, §2

HCC70 cells = details: for AUC: area under the dose response curve, 24 h; for GRmax: drug efficacy at highest tested dose (<0 cytotoxic, 0 cytostatic, >0 partial growth inhibition); for IC50: Homo sapiens
Description: as §1, §2

HCC38 cells = details: for AUC: area under the dose response curve, 24 h; for GRmax: drug efficacy at highest tested dose (<0 cytotoxic, 0 cytostatic, >0 partial growth inhibition); for IC50: Homo sapiens
Description: as §1, §2

MDA-MB-436 cells = details: for IC50: Homo sapiens; for AUC: area under the dose response curve, 24 h; for GRmax: drug efficacy at highest tested dose (<0 cytotoxic, 0 cytostatic, >0 partial growth inhibition)
Description: as §1, §2

MDA-MB-468 cells = details: for IC50: Homo sapiens; for AUC: area under the dose response curve, 24 h
Description: as §1, §2

[1] = HCC1806, growth rate inhibition concentration at GR(c) = 0.5, 24 h, read-out: GR50 (the source's name)
[2] = MCF7, MCF-7, growth rate inhibition concentration at GR(c) = 0.5, 24 h, read-out: GR50 (the source's name)
[3] = 24 h drug treatment, read-out: IC50
[4] = growth rate inhibition concentration at GR(c) = 0.5, 24 h, read-out: GR50 (the source's name)
[5] = HCC70, growth rate inhibition concentration at GR(c) = 0.5, 24 h, read-out: GR50 (the source's name)
[6] = HCC38, 24 h drug treatment, read-out: IC50
[7] = HCC38, growth rate inhibition concentration at GR(c) = 0.5, 24 h, read-out: GR50 (the source's name)
[8] = MDA-MB-436, growth rate inhibition concentration at GR(c) = 0.5, 24 h, read-out: GR50 (the source's name)
[9] = MDA-MB-468, growth rate inhibition concentration at GR(c) = 0.5, 24 h, read-out: GR50 (the source's name)

| SMILES | AUC (HCC1806 cells; HCC1806) | GRmax (HCC1806 cells; HCC1806) | IC50 (HCC1806 cells; [1]) [µM] | AUC (MDA-MB-453 cells; MDA-MB-453) | IC50 (MCF-7 cells; [2]) [µM] | AUC (MCF-7 cells; MCF-7) | GRmax (MCF-7 cells; MCF-7) | AUC (BT-549 cells; BT-549) | GRmax (BT-549 cells; BT-549) | IC50 (MCF-10A cells; [3]) [µM] | IC50 (MCF-10A cells; [4]) [µM] | AUC (MCF-10A cells; 24 h) | AUC (HCC70 cells; HCC70) | GRmax (HCC70 cells; HCC70) | IC50 (HCC70 cells; [5]) [µM] | AUC (HCC38 cells; HCC38) | GRmax (HCC38 cells; HCC38) | AUC (MDA-MB-436 cells; MDA-MB-436) | GRmax (MDA-MB-436 cells; MDA-MB-436) | AUC (MDA-MB-468 cells; MDA-MB-468) | other results |
| --- | --- | --- | --- | --- | --- | --- | --- | --- | --- | --- | --- | --- | --- | --- | --- | --- | --- | --- | --- | --- | --- |
| CC(=O)O[C@H]1C(=O)[C@@]2(C)[C@H]([C@H](OC(=O)c3ccccc3)[C@]3(O)C[C@H](OC(=O)[C@H](O)[C@@H](NC(=O)c4ccccc4)c4ccccc4)C(C)=C1C3(C)C)[C@]1(OC(C)=O)CO[C@@H]1C[C@@H]2O [Paclitaxel] | 0.72 | 0.51 | 0.84 | 0.93 | 0.041 | 0.79 | −0.56 | 0.87 | 0.58 | 0.86 | 0.098 | 0.73 | 0.86 | 0.46 | 0.38 | 0.81 | −0.50 | 0.78 | −0.97 | 0.81 | IC50 (HCC38 cells; [6]): 7.1 µM; IC50 (HCC38 cells; [7]): 0.11 µM; IC50 (MDA-MB-436 cells; [8]): 0.055 µM; IC50 (MDA-MB-468 cells; [9]): 1.4 µM |
| COC[C@H](NC(=O)c1cnc(C)s1)C(=O)N[C@@H](COC)C(=O)N[C@@H](Cc1ccccc1)C(=O)[C@@]1(C)CO1 [Oprozomib] | 0.85 | 0.42 | 6 | 0.84 | 0.27 | 0.88 | −0.45 | 0.81 | 0.38 | 2 | 0.36 | 0.79 | 0.89 | −0.10 | 3.7 | 0.73 | −0.98 | 0.84 | −0.93 | 0.76 | IC50 (HCC1806 cells; HCC1806, 24 h drug treatment, read-out: IC50): 6 µM; IC50 (MDA-MB-453 cells; MDA-MB-453, growth rate inhibition concentration at GR(c) = 0.5, 24 h, read-out: GR50 (the source's name)): 3.5 µM; IC50 (BT-549 cells; BT-549, growth rate inhibition concentration at GR(c) = 0.5, 24 h, read-out: GR50 (the source's name)): 0.94 µM; IC50 (HCC70 cells; HCC70, 24 h drug treatment, read-out: IC50): 7.6 µM; IC50 (HCC38 cells; [6]): 0.68 µM; IC50 (HCC38 cells; [7]): 0.33 µM; IC50 (MDA-MB-436 cells; [8]): 0.075 µM; IC50 (MDA-MB-468 cells; MDA-MB-468, 24 h drug treatment, read-out: IC50): 3.2 µM; IC50 (MDA-MB-468 cells; [9]): 0.39 µM |
| CC(C)C[C@@H](C=O)NC(=O)[C@H](CC(C)C)NC(=O)[C@H](CC(C)C)NC(=O)OCc1ccccc1 [MG 132, MG-132] (Cbz-Leu-Leu-Leu-aldehyde) | 0.82 | 0.31 | – | 0.87 | – | 0.87 | −0.32 | 0.83 | 0.26 | – | – | 0.78 | 0.87 | −0.40 | – | 0.71 | −0.98 | 0.86 | −0.88 | 0.81 | IC50 (HCC1806 cells; HCC1806, 24 h): 3.1 µM; IC50 (HCC1806 cells; HCC1806, 24 h, read-out: GR50 (µM)): 2.5 µM; IC50 (MDA-MB-453 cells; MDA-MB-453, 24 h, read-out: GR50 (µM)): 1.7 µM; IC50 (MCF-7 cells; MCF7, 24 h, read-out: GR50 (µM)): 0.57 µM; IC50 (BT-549 cells; BT-549, 24 h): 4.3 µM; IC50 (BT-549 cells; BT-549, 24 h, read-out: GR50 (µM)): 1.4 µM; IC50 (MCF-10A cells; 24 h): 0.94 µM; IC50 (MCF-10A cells; 24 h, read-out: GR50 (µM)): 0.4 µM; IC50 (HCC70 cells; HCC70, 24 h): 3.7 µM; IC50 (HCC70 cells; HCC70, 24 h, read-out: GR50 (µM)): 2.1 µM; IC50 (HCC38 cells; HCC38, 24 h): 0.57 µM; IC50 (HCC38 cells; HCC38, 24 h, read-out: GR50 (µM)): 0.37 µM; IC50 (MDA-MB-436 cells; MDA-MB-436, 24 h, read-out: GR50 (µM)): 0.29 µM; IC50 (MDA-MB-468 cells; MDA-MB-468, 24 h): 1.4 µM; IC50 (MDA-MB-468 cells; MDA-MB-468, 24 h, read-out: GR50 (µM)): 0.61 µM |
